Data published in US6835748B2, “Treatment of ocular disorders” (priority 1999, dated 2004).

Legend:
Format in all cases: in vivo, rabbit
[1] = test system: normotensive adult rabbits; assay: Pupil diameter measurement; settings: topical 1%, 2%, 5% solutions
Method: (§1) Male and female adult brown burgundy rabbits (2.6-4.4 kg) are used in this study. Animals are kept in individual cages under well-defined and standardized conditions (humidity and temperature controlled room, 13 h light/11 h dark cycle) with standard dry food and water ad libitum. All animals are accustomed to the procedure of IOP measurement but only those animals that have stable records are included in the study. All experiments are conducted in accordance with the ARVO resolution for the use of animals in ophthalmic and vision research and are approved by the Federal and Local Ethical and Agricultural Committees.
(§2) Solutions of a test drug are freshly prepared before each experiment by dissolution in sterile balanced salt solution (BSS) (Alcon Pharmaceuticals Ltd, Forth Worth, Tex., USA) at the required concentrations under sterile conditions. One 50-μL drop of the test solution is applied topically to the right eye whereas the contralateral eye receives the carrier BSS only.
Pupil diameter is measured horizontally in both eyes using a pupil gauge closely applied to the cornea under diffuse illumination conditions.

[2] = test system: normotensive adult rabbits; assay: Slit-lamp examination (local tolerability); settings: topical 1%, 2%, 5% solutions; before and 4 and 8 hours after administration
Method: as §1, §2
Slit-lamp biomicroscopy is performed by a trained ophthalmologist before drug administration and 4 and 8 hours thereafter. Eyes are controlled for conjunctival redness and discharge, for integrity of the corneal epithelium and for the absence or presence of flare (protein in the anterior chamber being an indication of blood aqueous barrier breakdown).

[3] = test system: normotensive adult rabbits; assay: IOP measurement (TonoPen XL) after a single topical 50-μL drop in rabbits
Method: as §1, §2
IOP is measured with a TonoPen XL (Mentor, Norvel, Mass.), the device being calibrated daily according to the manufacturer's instructions. […] Corneas are anaesthetized by topical application of a 50-μL drop of 0.2% Novocaine prior to each IOP measurement.
Measurements are always initiated at the same time (8 a.m.), a sufficient recovery period of at least 7 days is provided for the animals between the experiments. Control readings are taken 10 minutes before instillation of the test drug to the right eye and of the vehicle to the left one. IOP is recorded at 1-hour intervals for the ensuing 8 hours. Baseline measurements are likewise performed hourly in all animals prior to treatment, for monitoring of diurnal rhythms. (9)
Data are analyzed according to the Mann-Whitney U-test. IOP values recorded before and after application of Rivastigmine or the drug vehicle are compared in the same eye, differences with a first order error of P<0.05 being considered as statistically significant.

## CCN(C)C(=O)Oc1cccc(C(C)N(C)C)c1 (centres unmarked) [Rivastigmine]
[1]
  Pupil reaction in drug-treated eyes: insignificant miotic pupil reaction
[2]
  Local toxicity (slit-lamp: redness, discharge, corneal epithelium, flare): No signs of rivastigmine-related local toxicity
[3]; 1% solution
  Time of maximal mean decrease in IOP, treated eye: 5 h
[3]; 1% solution (longest effect)
  Duration of significant IOP-lowering effect, treated eyes: 5 h
[3]; 1% solution applied to contralateral right eye, n=8, time 0 hrs (control reading before instillation)
  IOP, left eye (untreated, vehicle): 12.0 mm
[3]; 1% solution to contralateral eye
  Time of maximal mean decrease in IOP, untreated eye: 4 h
[3]; 1% solution to contralateral eye, time 1 hrs
  IOP, left eye (untreated, vehicle): 11.6 mm
[3]; 1% solution to contralateral eye, time 2 hrs
  IOP, left eye (untreated, vehicle): 11.2 mm
[3]; 1% solution to contralateral eye, time 3 hrs
  IOP, left eye (untreated, vehicle): 11.1 mm
[3]; 1% solution to contralateral eye, time 4 hrs
  IOP, left eye (untreated, vehicle): 10.2 mm
[3]; 1% solution to contralateral eye, time 5 hrs
  IOP, left eye (untreated, vehicle): 11.0 mm
[3]; 1% solution to contralateral eye, time 6 hrs
  IOP, left eye (untreated, vehicle): 10.7 mm
[3]; 1% solution to contralateral eye, time 7 hrs
  IOP, left eye (untreated, vehicle): 11.1 mm
[3]; 1% solution to contralateral eye, time 8 hrs
  IOP, left eye (untreated, vehicle): 11.4 mm
[3]; 1% solution, 50-μL drop topical, n=8, time 0 hrs (control reading before instillation)
  IOP, right eye (treated): 12.3 mm
[3]; 1% solution, 5 hours after application
  Maximal mean decrease in IOP, treated eye: 2.6±1.2 mm Hg
[3]; 1% solution, time 1 hrs
  IOP, right eye (treated): 12.0 mm
[3]; 1% solution, time 2 hrs
  IOP, right eye (treated): 11.2 mm
[3]; 1% solution, time 3 hrs
  IOP, right eye (treated): 10.8 mm
[3]; 1% solution, time 4 hrs
  IOP, right eye (treated): 10.5 mm
[3]; 1% solution, time 5 hrs
  IOP, right eye (treated): 10.1 mm
[3]; 1% solution, time 6 hrs
  IOP, right eye (treated): 11.1 mm
[3]; 1% solution, time 7 hrs
  IOP, right eye (treated): 11.5 mm
[3]; 1% solution, time 8 hrs
  IOP, right eye (treated): 11.6 mm
[3]; 2% solution
  Time of maximal mean decrease in IOP, treated eye: 3 h
[3]; 2% solution applied to contralateral right eye, n=4, time 0 hrs (control reading before instillation)
  IOP, left eye (untreated, vehicle): 11.2 mm
[3]; 2% solution to contralateral eye
  Time of maximal mean decrease in IOP, untreated eye: 3 h
[3]; 2% solution to contralateral eye, time 1 hrs
  IOP, left eye (untreated, vehicle): 11.9 mm
[3]; 2% solution to contralateral eye, time 2 hrs
  IOP, left eye (untreated, vehicle): 11.2 mm
[3]; 2% solution to contralateral eye, time 3 hrs
  IOP, left eye (untreated, vehicle): 10.2 mm
[3]; 2% solution to contralateral eye, time 4 hrs
  IOP, left eye (untreated, vehicle): 12.3 mm
[3]; 2% solution to contralateral eye, time 5 hrs
  IOP, left eye (untreated, vehicle): 11.5 mm
[3]; 2% solution to contralateral eye, time 6 hrs
  IOP, left eye (untreated, vehicle): 11.2 mm
[3]; 2% solution to contralateral eye, time 7 hrs
  IOP, left eye (untreated, vehicle): 11.0 mm
[3]; 2% solution to contralateral eye, time 8 hrs
  IOP, left eye (untreated, vehicle): 13.0 mm
[3]; 2% solution, 50-μL drop topical, n=4, time 0 hrs (control reading before instillation)
  IOP, right eye (treated): 11.5 mm
[3]; 2% solution, 3 hours after application
  Maximal mean decrease in IOP, treated eye: 2.2±0.8 mm Hg
[3]; 2% solution, time 1 hrs
  IOP, right eye (treated): 11.5 mm
[3]; 2% solution, time 2 hrs
  IOP, right eye (treated): 11.0 mm
[3]; 2% solution, time 3 hrs
  IOP, right eye (treated): 9.2 mm
[3]; 2% solution, time 4 hrs
  IOP, right eye (treated): 10.8 mm
[3]; 2% solution, time 5 hrs
  IOP, right eye (treated): 11.5 mm
[3]; 2% solution, time 6 hrs
  IOP, right eye (treated): 11.1 mm
[3]; 2% solution, time 7 hrs
  IOP, right eye (treated): 10.8 mm
[3]; 2% solution, time 8 hrs
  IOP, right eye (treated): 12.0 mm
[3]; 5% solution
  Time of maximal mean decrease in IOP, treated eye: 1 h
[3]; 5% solution applied to contralateral right eye, n=6, time 0 hrs (control reading before instillation)
  IOP, left eye (untreated, vehicle): 13.4 mm
[3]; 5% solution to contralateral eye
  Time of maximal mean decrease in IOP, untreated eye: 1 h
[3]; 5% solution to contralateral eye, time 1 hrs
  IOP, left eye (untreated, vehicle): 10.7 mm
[3]; 5% solution to contralateral eye, time 2 hrs
  IOP, left eye (untreated, vehicle): 11.5 mm
[3]; 5% solution to contralateral eye, time 3 hrs
  IOP, left eye (untreated, vehicle): 11.3 mm
[3]; 5% solution to contralateral eye, time 4 hrs
  IOP, left eye (untreated, vehicle): 11.9 mm
[3]; 5% solution to contralateral eye, time 5 hrs
  IOP, left eye (untreated, vehicle): 13.2 mm
[3]; 5% solution to contralateral eye, time 6 hrs
  IOP, left eye (untreated, vehicle): 12.5 mm
[3]; 5% solution to contralateral eye, time 7 hrs
  IOP, left eye (untreated, vehicle): 13.3 mm
[3]; 5% solution to contralateral eye, time 8 hrs
  IOP, left eye (untreated, vehicle): 13.0 mm
[3]; 5% solution to contralateral eye, P<0.05, Mann-Whitney U-test
  Significance of IOP decrease in untreated eyes: significant
[3]; 5% solution, 50-μL drop topical, n=6, time 0 hrs (control reading before instillation)
  IOP, right eye (treated): 13.7 mm
[3]; 5% solution, 1 hour after application
  Maximal mean decrease in IOP, treated eye: 3.5±1.2 mm Hg
[3]; 5% solution, time 1 hrs
  IOP, right eye (treated): 10.0 mm
[3]; 5% solution, time 2 hrs
  IOP, right eye (treated): 11.1 mm
[3]; 5% solution, time 3 hrs
  IOP, right eye (treated): 10.8 mm
[3]; 5% solution, time 4 hrs
  IOP, right eye (treated): 10.5 mm
[3]; 5% solution, time 5 hrs
  IOP, right eye (treated): 12.9 mm
[3]; 5% solution, time 6 hrs
  IOP, right eye (treated): 12.5 mm
[3]; 5% solution, time 7 hrs
  IOP, right eye (treated): 14.0 mm
[3]; 5% solution, time 8 hrs
  IOP, right eye (treated): 11.8 mm
[3]; topical 1%, 2%, 5% solutions
  IOP effect in the treated eye (in words): lowers the IOP significantiy
